Assay results published in ChEMBL document CHEMBL2046359, “Novel tricyclic indeno[2,1-d]pyrimidines with dual antiangiogenic and cytotoxic activities as potent antitumor agents” (Bioorg Med Chem, 2012).

Assays:
cells = conditions: Homo sapiens, Hs-578T
UO-31 = assay: cells; conditions: Homo sapiens
ACHN = assay: cells; conditions: Homo sapiens
CAKI-1 = assay: cells; conditions: Homo sapiens
SNB-19 = assay: cells; conditions: Homo sapiens
DU-145 = assay: cells; conditions: Homo sapiens
[1] = Inhibition of Escherichia coli thymidylate synthase
SW-620 = assay: cells; conditions: Homo sapiens
[2] = molecular target: T1, Bifunctional dihydrofolate reductase-thymidylate synthase (Toxoplasma gondii, UniProt Q07422); assay: Inhibition of Toxoplasma gondii DHFR
T1 sequence (Q07422 whole entry): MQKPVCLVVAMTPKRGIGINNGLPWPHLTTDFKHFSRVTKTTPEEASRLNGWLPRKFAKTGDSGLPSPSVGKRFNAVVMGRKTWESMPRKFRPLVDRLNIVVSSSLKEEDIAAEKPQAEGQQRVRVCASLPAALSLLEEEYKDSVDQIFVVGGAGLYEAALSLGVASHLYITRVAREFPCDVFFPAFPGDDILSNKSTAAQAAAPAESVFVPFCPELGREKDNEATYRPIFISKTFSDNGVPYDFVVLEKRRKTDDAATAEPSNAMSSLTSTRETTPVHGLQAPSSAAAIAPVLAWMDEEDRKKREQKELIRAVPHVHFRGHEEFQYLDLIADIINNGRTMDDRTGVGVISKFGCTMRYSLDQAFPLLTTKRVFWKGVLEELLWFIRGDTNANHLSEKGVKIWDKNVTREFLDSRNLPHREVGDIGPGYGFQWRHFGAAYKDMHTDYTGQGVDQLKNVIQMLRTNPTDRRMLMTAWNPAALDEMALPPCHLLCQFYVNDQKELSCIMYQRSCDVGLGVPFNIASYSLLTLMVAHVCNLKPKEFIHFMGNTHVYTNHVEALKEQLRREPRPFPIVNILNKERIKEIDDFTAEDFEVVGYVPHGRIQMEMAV

UACC-257 = assay: cells; conditions: Homo sapiens
RXF 393 = assay: cells; conditions: Homo sapiens
EKVX = assay: cells; conditions: Homo sapiens
SK-MEL-28 = assay: cells; conditions: Homo sapiens
OVCAR-8 = assay: cells; conditions: Homo sapiens
HOP-92 = assay: cells; conditions: Homo sapiens
Dihydrofolate reductase = molecular target: T2, Dihydrofolate reductase (Homo sapiens, UniProt P00374)
T2 sequence (P00374 whole entry): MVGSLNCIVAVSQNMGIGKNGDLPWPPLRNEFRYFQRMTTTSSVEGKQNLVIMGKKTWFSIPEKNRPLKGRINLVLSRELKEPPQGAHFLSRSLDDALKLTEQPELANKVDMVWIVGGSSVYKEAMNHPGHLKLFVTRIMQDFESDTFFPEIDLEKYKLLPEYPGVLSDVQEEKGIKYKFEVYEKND

NCI-H460 = assay: cells; conditions: Homo sapiens
MDA-MB-231 = assay: cells; conditions: Homo sapiens
LOX IMVI = assay: cells; conditions: Homo sapiens
[3] = molecular target: Dihydroorotate dehydrogenase (quinone), mitochondrial (Homo sapiens, UniProt Q02127); assay: Inhibition of human DHODH
SNB-75 = assay: cells; conditions: Homo sapiens
A498 = assay: cells; conditions: Homo sapiens
HCT-15 = assay: cells; conditions: Homo sapiens
HL-60(TB) = assay: cells; conditions: Homo sapiens
U-251 = assay: cells; conditions: Homo sapiens
Malme-3M = assay: cells; conditions: Homo sapiens
CCRF-CEM = assay: cells; conditions: Homo sapiens
[4] = molecular target: Vascular endothelial growth factor receptor 2 (Homo sapiens, UniProt P35968); assay type: cell-based, U-251
NCI-H322M = assay: cells; conditions: Homo sapiens
Mus musculus = assay: Toxicity in NCr nu/nu mouse allografted with mouse B16F10 cells assessed as weight loss at 35 mg/kg, ip administered three times a week for 4 weeks; assay type: organism-based, B16-F10; design: dose 35 mg/kg, route intraperitoneal; conditions: in vivo, 672 h

Chain of Dihydroorotate dehydrogenase (quinone), mitochondrial (Q02127 whole entry): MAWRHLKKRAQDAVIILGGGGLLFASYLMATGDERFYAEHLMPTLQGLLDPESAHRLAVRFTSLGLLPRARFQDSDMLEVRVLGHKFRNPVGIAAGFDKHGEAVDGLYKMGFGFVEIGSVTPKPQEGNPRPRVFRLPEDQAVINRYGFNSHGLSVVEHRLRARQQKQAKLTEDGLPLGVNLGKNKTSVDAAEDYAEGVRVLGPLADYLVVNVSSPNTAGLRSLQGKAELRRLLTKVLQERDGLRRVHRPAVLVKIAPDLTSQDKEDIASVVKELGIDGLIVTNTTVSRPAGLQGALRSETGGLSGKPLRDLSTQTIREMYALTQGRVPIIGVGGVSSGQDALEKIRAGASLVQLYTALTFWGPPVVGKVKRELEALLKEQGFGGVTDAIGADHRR
Chain of Vascular endothelial growth factor receptor 2 (P35968 whole entry): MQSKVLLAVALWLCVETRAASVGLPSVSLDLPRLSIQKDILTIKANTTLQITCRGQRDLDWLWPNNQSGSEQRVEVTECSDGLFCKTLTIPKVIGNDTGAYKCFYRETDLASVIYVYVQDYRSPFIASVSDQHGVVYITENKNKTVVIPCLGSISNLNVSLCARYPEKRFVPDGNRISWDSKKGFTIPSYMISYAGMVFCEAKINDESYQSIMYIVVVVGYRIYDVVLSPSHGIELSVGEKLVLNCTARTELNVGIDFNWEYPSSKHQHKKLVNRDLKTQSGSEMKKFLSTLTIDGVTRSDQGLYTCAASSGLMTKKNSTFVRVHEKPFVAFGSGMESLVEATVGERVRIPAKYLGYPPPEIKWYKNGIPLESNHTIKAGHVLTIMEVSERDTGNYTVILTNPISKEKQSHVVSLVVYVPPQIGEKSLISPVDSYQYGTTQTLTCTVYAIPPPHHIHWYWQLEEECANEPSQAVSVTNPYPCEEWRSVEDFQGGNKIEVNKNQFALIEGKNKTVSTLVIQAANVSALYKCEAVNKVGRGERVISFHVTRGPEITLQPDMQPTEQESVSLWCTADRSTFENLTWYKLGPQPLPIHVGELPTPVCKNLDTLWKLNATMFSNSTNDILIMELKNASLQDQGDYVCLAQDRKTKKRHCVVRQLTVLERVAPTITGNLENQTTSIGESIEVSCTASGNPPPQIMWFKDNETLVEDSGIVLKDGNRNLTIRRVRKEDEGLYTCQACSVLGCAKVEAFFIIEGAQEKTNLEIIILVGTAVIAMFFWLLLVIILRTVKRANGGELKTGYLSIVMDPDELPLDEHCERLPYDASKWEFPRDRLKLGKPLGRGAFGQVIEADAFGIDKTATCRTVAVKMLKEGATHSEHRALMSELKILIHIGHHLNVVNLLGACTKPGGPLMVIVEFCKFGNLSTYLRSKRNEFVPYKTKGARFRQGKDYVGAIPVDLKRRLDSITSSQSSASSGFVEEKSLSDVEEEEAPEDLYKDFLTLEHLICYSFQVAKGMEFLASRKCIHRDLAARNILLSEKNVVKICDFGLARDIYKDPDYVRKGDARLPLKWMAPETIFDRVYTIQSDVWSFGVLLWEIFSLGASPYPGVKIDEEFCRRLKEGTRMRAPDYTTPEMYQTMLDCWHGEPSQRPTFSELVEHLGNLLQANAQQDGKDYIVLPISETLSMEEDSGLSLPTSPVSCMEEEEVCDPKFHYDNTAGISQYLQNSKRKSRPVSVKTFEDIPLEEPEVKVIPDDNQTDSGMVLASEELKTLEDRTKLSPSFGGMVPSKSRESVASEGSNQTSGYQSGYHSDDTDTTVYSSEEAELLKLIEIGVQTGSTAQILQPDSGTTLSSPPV

SMILES: Nc1nc2c(c(Nc3ccc(Cl)cc3)n1)-c1ccccc1C2
- GI50 (cells): 2220 nM
- GI50 (UO-31): 790 nM
- GI50 (ACHN): 3420 nM
- GI50 (CAKI-1): 1080 nM
- GI50 (SNB-19): 113 nM
- GI50 (DU-145): 212 nM
- IC50 [1]: > 14000 nM
- GI50 (SW-620): 63 nM
- IC50 [2]: > 16000 nM
- GI50 (UACC-257): 84.5 nM
- GI50 (RXF 393): 2910 nM
- GI50 (EKVX): 2710 nM
- GI50 (SK-MEL-28): 1510 nM
- GI50 (OVCAR-8): 216 nM
- GI50 (HOP-92): 18100 nM
- IC50 (Dihydrofolate reductase): > 16000 nM
- GI50 (NCI-H460): 19.3 nM
- GI50 (MDA-MB-231): 641 nM
- GI50 (LOX IMVI): 308 nM
- IC50 [3]: > 200000 nM
- GI50 (SNB-75): 5030 nM
- GI50 (A498): 2490 nM
- GI50 (HCT-15): 434 nM
- GI50 (HL-60(TB)): 150 nM
- GI50 (U-251): 184 nM
- GI50 (Malme-3M): > 10000 nM
- GI50 (CCRF-CEM): 31.2 nM
- IC50 [4]: > 200000 nM
- GI50 (NCI-H322M): 1350 nM
- Activity (Mus musculus): Non-toxic
